Experimental data taken from patent US12291529B2, “Heterocyclic GLP-1 agonists” (Gasherbrum Bio, Inc., priority 2023, dated 2025).

Each compound was assayed against GLP-1 Receptor (Homo sapiens, UniProt P43220) (assay: GLP-1R agonist cAMP stimulation assay (HEK293/GLP1R/CRE-LUC cells, Cisbio cAMP dynamic 2 kit)). Conditions: Table 3, HEK293/GLP1R/CRE-LUC cells, 30 min.
Format: cell-based
Procedure: Activation of GLP-1 receptor is known to stimulate cyclic AMP (cAMP) production in cells which indicates primary coupling to the G as subunit of the G protein heterotrimeric complex.
To optimize functional activity directed toward G as coupling, a HEK293/CRE-Luc cell line developed by HDB stably expressing the GLP-1 Receptor was used. 200× concentration of compound working solutions were prepared (Agilent Technologies Bravo) with ½ log serial dilution in 384-well Echo LDV plate (Labcyte, CatOLP-0200). 50 nL/well 200× concentration of compound working solutions were moved to 384-well white low volume plate (Greiner, Cat4784075) using Labcyte ECH0550.1×10^5 cells/mL HEK293/GLP1R/CRE-LUC (HD Biosciences) cell suspensions prepared with assay buffer (DPBS containing 0.5 mM IBMX (Sigma, Cat15879) and 0.10 BSA (GENVIEW, Cat4FA016-100g)), 10 uL cell suspensions were added to each well of previous generated assay plate which already contains 50 n^1 compound at 200 xconcentration using ThermioFisher Multidrop Combi (1000 cells/well). Seal the plate and incubate at 37 with […] for 30 m.
After incubation the cAMP assay signal was generated using cAMP dynamic 2 Kit (Cisbio). 5 μL cAMP-d2 working solution was added to each well, followed with 5 L Anti-cAMP antibody-cryptate working solution added to each well using ThermoFisher Multidrop Combi. Incubate at room temperature for 1 hour protected from light. Read the fluorescence at 665 and 615 nm with Reader PerkinElmer EnVision. % oActivity=100%×(mean RLU of test sample−mean RLU of vehicle control)/(mean RLU of MAX control−mean RLU of vehicle control)

Sequence of GLP-1 Receptor (P43220 24-463, species assumed): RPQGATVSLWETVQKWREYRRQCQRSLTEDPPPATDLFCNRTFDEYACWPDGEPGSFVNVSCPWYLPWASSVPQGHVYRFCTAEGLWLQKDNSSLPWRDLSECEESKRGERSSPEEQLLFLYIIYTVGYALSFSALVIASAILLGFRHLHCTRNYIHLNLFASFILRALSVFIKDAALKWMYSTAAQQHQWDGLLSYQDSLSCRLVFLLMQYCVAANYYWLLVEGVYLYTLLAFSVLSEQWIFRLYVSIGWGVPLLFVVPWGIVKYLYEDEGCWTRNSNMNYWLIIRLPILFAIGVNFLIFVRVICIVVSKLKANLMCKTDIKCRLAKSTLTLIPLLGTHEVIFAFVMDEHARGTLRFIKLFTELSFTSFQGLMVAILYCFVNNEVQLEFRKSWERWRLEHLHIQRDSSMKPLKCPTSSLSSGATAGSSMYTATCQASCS

First: Cc1cc(-n2nc3c(c2-n2ccn(-c4ccc(C5(S(C)(=N)=O)CC5)cc4)c2=O)[C@H](C)N(C(=O)c2cc4cc(C5CCOCC5)ccc4n2[C@@]2(c4noc(=O)[nH]4)C[C@@H]2C)CC3)cc(C)c1F (single isomer, unassigned) [Compound 177]
Second: CCS(=N)(=O)c1ccc(-n2ccn(-c3c4c(nn3-c3cc(C)c(F)c(C)c3)CCN(C(=O)c3cc5cc(C6CCOCC6)ccc5n3[C@@]3(c5noc(=O)[nH]5)C[C@@H]3C)[C@H]4C)c2=O)cc1 (single isomer, unassigned) [Compound 117]
The EC50 of the first is 2.4-fold higher: 0.026 nM for the first, 0.011 nM for the second.

Compared with `Cc1cc(-n2nc3c(c2-n2ccn(-c4ccc5c(c4)CCN=S5(C)=O)c2=O)[C@H](C)N(C(=O)c2cc4cc(C5CCOCC5)ccc4n2[C@@]2(c4noc(=O)[nH]4)C[C@@H]2C)CC3)cc(C)c1F` (stereo partly drawn) [Compound 108, 6-{3-[(4S)-2-(4-fluoro-3,5-dimethylphenyl)-5-({1-[(1S,2S)-2-methyl-1-(5-oxo-4H-1,2,4-oxadiazol-3-yl)cyclopropyl]-5-(3,4,5,6-tetrahydro-2H-pyran-4-yl)indol-2-yl}carbonyl)-4-methyl-4,5,6,7-tetrahydropyrazolo[4,3-c]pyridin-3-yl]-2-oxoimidazol-1-yl}-1-methyl-3,4-dihydro-1λ^6-benzo[2,1-e][1,2]thiazin-1-one], `Cc1cc(-n2nc3c(c2-n2ccn(-c4ccc5c(c4)CCCN=S5(=O)C4CC4)c2=O)[C@H](C)N(C(=O)c2cc4cc([C@H]5CCOC(C)(C)C5)ccc4n2[C@@]2(c4noc(=O)[nH]4)C[C@@H]2C)CC3)cc(C)c1F` (single isomer, unassigned) [Compound 213] is 9.2-fold higher in EC50: 0.013 nM for the first, 0.12 nM for the second.

First: CN=S(=O)(c1ccc(-n2ccn(-c3c4c(nn3-c3cc(C)c(F)c(C)c3)CCN(C(=O)c3cc5cc([C@H]6CCOC(C)(C)C6)ccc5n3[C@@]3(c5noc(=O)[nH]5)C[C@@H]3C)[C@H]4C)c2=O)c(F)c1C)C1CC1 (single isomer, unassigned) [Compound 196]
Second: CN=S(=O)(c1ccc(-n2ccn(-c3c4c(nn3-c3cc(C)c(F)c(C)c3)CCN(C(=O)c3cc5cc([C@H]6CCOC(C)(C)C6)ccc5n3[C@@]3(c5noc(=O)[nH]5)C[C@@H]3C)[C@H]4C)c2=O)c(Cl)c1)C1CC1 (single isomer, unassigned) [Compound 205]
The EC50 of the first is 1.8-fold lower: 0.039 nM for the first, 0.072 nM for the second.

Compared with `Cc1cc(-n2nc3c(c2-n2ccn(-c4ccc(C5(S(C)(=N)=O)CC5)cc4)c2=O)[C@H](C)N(C(=O)c2cc4cc(C5CCOCC5)ccc4n2[C@@]2(c4noc(=O)[nH]4)C[C@@H]2C)CC3)cc(C)c1F` (single isomer, unassigned) [Compound 176], `CCS(=N)(=O)c1ccc(-n2ccn(-c3c4c(nn3-c3cc(C)c(F)c(C)c3)CCN(C(=O)c3cc5cc(C6CCOCC6)ccc5n3[C@@]3(c5noc(=O)[nH]5)C[C@@H]3C)[C@H]4C)c2=O)c(F)c1` (single isomer, unassigned) [Compound 138] is 24-fold lower in EC50: 0.024 nM for the first, 0.001 nM for the second.

Compared with `Cc1cc(-n2nc3c(c2-n2ccn(-c4ccc(S(=N)(=O)CC5CC5)cc4F)c2=O)[C@H](C)N(C(=O)c2cc4cc([C@H]5CCOC(C)(C)C5)ccc4n2[C@@]2(c4noc(=O)[nH]4)C[C@@H]2C)CC3)cc(C)c1F` (single isomer, unassigned) [Compound 184], `Cc1cc(-n2nc3c(c2-n2ccn(-c4ccc(S(=N)(=O)CC5CC5)cc4F)c2=O)[C@H](C)N(C(=O)c2cc4cc(C5CCOCC5)ccc4n2[C@@]2(c4noc(=O)[nH]4)C[C@@H]2C)CC3)cc(C)c1F` (single isomer, unassigned) [Compound 178] is 9.4-fold higher in EC50: 0.01 nM for the first, 0.094 nM for the second.

Going from `CCS(=N)(=O)c1ccc(-n2ccn(-c3c4c(nn3-c3ccc(F)c(C5CC5)c3)CCN(C(=O)c3cc5cc(C6CCOCC6)ccc5n3[C@@]3(c5noc(=O)[nH]5)C[C@@H]3C)[C@H]4C)c2=O)c(F)c1` (single isomer, unassigned) [Compound 166] to `Cc1cc(-n2nc3c(c2-n2ccn(-c4ccc(S(=N)(=O)C5CCC5)cc4F)c2=O)[C@H](C)N(C(=O)c2cc4cc(C5CCOCC5)ccc4n2[C@@]2(c4noc(=O)[nH]4)C[C@@H]2C)CC3)cc(C)c1F` (single isomer, unassigned) [Compound 169], the EC50 rises from 0.019 nM to 0.07 nM (3.7-fold). The first is the more potent here.

Compared with `CCS(=O)(=NC)c1ccc(-n2ccn(-c3c4c(nn3-c3cc(C)c(F)c(C)c3)CCN(C(=O)c3cc5cc(C6CCOCC6)ccc5n3C[C@@H]3CCO3)[C@H]4C)c2=O)cc1` (single isomer, unassigned) [Compound 162], `CCS(=O)(=NC)c1ccc(-n2ccn(-c3c4c(nn3-c3cc(C)c(F)c(C)c3)CCN(C(=O)c3cc5cc(C6CCOCC6)ccc5n3CC3CCCO3)[C@H]4C)c2=O)cc1` (some centres unmarked) [Compound 163] is 6.2-fold higher in EC50: 3.2 nM for the first, 20 nM for the second.

Compared with `Cc1cc(-n2nc3c(c2-n2ccn(-c4ccc5c(c4)CS(C)(=O)=N5)c2=O)[C@H](C)N(C(=O)c2cc4cc([C@H]5CCOC(C)(C)C5)ccc4n2[C@@]2(c4noc(=O)[nH]4)C[C@@H]2C)CC3)cc(C)c1F` (stereo partly drawn) [Compound 227, 5-{3-[(4S)-2-(4-fluoro-3,5-dimethylphenyl)-5-({5-[(4S)-2,2-dimethyl-3,4,5,6-tetrahydro-2H-pyran-4-yl]-1-[(1S,2S)-2-methyl-1-(5-oxo-4H-1,2,4-oxadiazol-3-yl)cyclopropyl]indol-2-yl}carbonyl)-4-methyl-4,5,6,7-tetrahydropyrazolo[4,3-c]pyridin-3-yl]-2-oxoimidazol-1-yl}-2-methyl-3H-2λ^6-benzo[c][1,2]thiazol-2-one], `Cc1cc(-n2nc3c(c2-n2ccn(-c4ccc5c(c4)C=CS(C)(=O)=N5)c2=O)[C@H](C)N(C(=O)c2cc4cc([C@H]5CCOC(C)(C)C5)ccc4n2[C@@]2(c4noc(=O)[nH]4)C[C@@H]2C)CC3)cc(C)c1F` (single isomer, unassigned) [Compound 230] is 3.2-fold higher in EC50: 0.015 nM for the first, 0.048 nM for the second. The first is the more potent here.

Going from `Cc1cc(-n2nc3c(c2-n2ccn(-c4ccc(S(=O)(=NC5CC5)C5CC5)cc4F)c2=O)[C@H](C)N(C(=O)c2cc4cc([C@H]5CCOC(C)(C)C5)ccc4n2[C@@]2(c4noc(=O)[nH]4)C[C@@H]2C)CC3)cc(C)c1F` (single isomer, unassigned) [Compound 209] to `CN=S(=O)(c1ccc(-n2ccn(-c3c4c(nn3-c3cc(C)c(F)c(C)c3)CCN(C(=O)c3cc5cc(C6CCOCC6)ccc5n3[C@@]3(c5noc(=O)[nH]5)C[C@@H]3C)[C@H]4C)c2=O)c(F)c1)C1CC1` (single isomer, unassigned) [Compound 222], the EC50 falls from 0.22 nM to 0.084 nM (2.6-fold).

Going from `Cc1cc(-n2nc3c(c2-n2ccn(-c4ccc5c(c4F)CN=S5(=O)C4CC4)c2=O)[C@H](C)N(C(=O)c2cc4cc([C@H]5CCOC(C)(C)C5)ccc4n2[C@@]2(c4noc(=O)[nH]4)C[C@@H]2C)CC3)cc(C)c1F` (single isomer, unassigned) [Compound 191] to `Cc1cc(-n2nc3c(c2-n2ccn(-c4ccc5c(c4Cl)CN=S5(C)=O)c2=O)[C@H](C)N(C(=O)c2cc4cc([C@H]5CCOC(C)(C)C5)ccc4n2[C@@]2(c4noc(=O)[nH]4)C[C@@H]2C)CC3)cc(C)c1F` (single isomer, unassigned) [Compound 202], the EC50 rises from 0.0096 nM to 0.018 nM (1.9-fold).

First: Cc1cc(-n2nc3c(c2-n2ccn(-c4ccc(S(C)(=N)=O)cc4)c2=O)[C@H](C)N(C(=O)c2cc4cc(C5CCOCC5)ccn4c2C2(c4noc(=O)[nH]4)CC2)CC3)cc(C)c1F (some centres unmarked) [Compound 107]
Second: CNc1cc(-n2ccn(-c3c4c(nn3-c3cc(C)c(F)c(C)c3)CCN(C(=O)c3cc5cc(C6CCOCC6)ccc5n3[C@@]3(c5nc(=O)o[nH]5)C[C@@H]3C)[C@H]4C)c2=O)ccc1S(C)(=N)=O (stereo partly drawn) [Compound 105, 3-[(1S,2S)-1-(2-{[(S)-2-(4-fluoro-3,5-xylyl)-3-{3-[4-(iminomethyloxothio)-3-(methylamino)phenyl]-2-oxo-1,3-dihydro-1-imidazolyl}-4-methyl-4,5,6,7-tetrahydro-2H-1,2,5-triazainden-5-yl]carbonyl}-5-(tetrahydro-2H-pyran-4-yl)-1-indolyl)-2-methylcyclopropyl]-1,2,4-oxadiazol-5(4H)-one]
The EC50 of the first is 51-fold higher: 0.46 nM for the first, 0.009 nM for the second.

Compared with `CN=S1(=O)CCC(Oc2ccc(-n3ccn(-c4c5c(nn4-c4cc(C)c(F)c(C)c4)CCN(C(=O)c4cc6cc(C7CCOCC7)ccc6n4[C@@]4(c6noc(=O)[nH]6)C[C@@H]4C)[C@H]5C)c3=O)cc2C(F)F)CC1` (single isomer, unassigned) [Compound 234], `Cc1cc(-n2nc3c(c2-n2ccn(-c4ccc5c(c4)CCCN=S5(=O)C4CC4)c2=O)[C@H](C)N(C(=O)c2cc4cc([C@H]5CCOC(C)(C)C5)ccc4n2[C@@]2(c4noc(=O)[nH]4)C[C@@H]2C)CC3)cc(C)c1F` (single isomer, unassigned) [Compound 212] is 1.5-fold lower in EC50: 0.058 nM for the first, 0.038 nM for the second. The second is the more potent here.

First: Cc1cc(-n2ccn(-c3c4c(nn3-c3cc(C)c(F)c(C)c3)CCN(C(=O)c3cc5cc([C@H]6CCOC(C)(C)C6)ccc5n3[C@@]3(c5noc(=O)[nH]5)C[C@@H]3C)[C@H]4C)c2=O)c(F)cc1S(=N)(=O)C1CC1 (single isomer, unassigned) [Compound 189]
Second: CN=S(=O)(c1ccc(-n2ccn(-c3c4c(nn3-c3ccc(F)c(C5CC5)c3)CCN(C(=O)c3cc5cc([C@H]6CCOC(C)(C)C6)ccc5n3[C@@]3(c5noc(=O)[nH]5)C[C@@H]3C)[C@H]4C)c2=O)c(F)c1C)C1CC1 (single isomer, unassigned) [Compound 217]
The EC50 of the first is 4.3-fold lower: 0.047 nM for the first, 0.2 nM for the second.
